Earlier results as cited in article PMC10254530, “Design and Synthesis of Brefeldin A-Isothiocyanate Derivatives with Selectivity and Their Potential for Cervical Cancer Therapy” (Molecules, 2023).

Assays:
[1] = system: U87 cells; design: method as in PMID 35557894; details: glioblastoma multiforme U87 cells in vitro; read-out: IC50, cytotoxic activity against U87 cells; cited from earlier work
[2] = system: human T lymphoblastoid cell line Jurkat; design: method as in PMID 22200402; details: 0.5 μM; cited from earlier work

C[C@@H]1CCC2[C@@H](C)[C@@H](OCCCN=C=S)O[C@@H]3O[C@@]4(C)CCC1[C@@]23OO4 (some centres unmarked) [compound B]
IC50 [1]: 7.41 µM

O=C1c2ccc3c4c(ccc(c24)C(=O)N1CCCN=C=S)C(=O)N(CCCN=C=S)C3=O [derivative A]
effect on apoptosis in Jurkat cells [2]: induced apoptosis by activating caspase-8
